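Values below derive from 48-hour exposures of cells grown in 96-well plates, with endpoints linearly interpolated between the two concentrations bracketing the appropriate inhibition level. GI50 is the concentration that inhibits growth by half. TGI marks complete inhibition of growth.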
Columns and labels:
Assay in all cases: NCI anticancer screen, dose series, 48 h
786-0 renal = test system: 786-0 renal
A498 renal = test system: A498 renal
A549 NSCLC = test system: A549 NSCLC
ACHN renal = test system: ACHN renal
BT-549 breast = test system: BT-549 breast
CAKI-1 renal = test system: CAKI-1 renal
CCRF-CEM leukemia = test system: CCRF-CEM leukemia
COLO 205 colon = test system: COLO 205 colon
DU-145 prostate = test system: DU-145 prostate
EKVX NSCLC = test system: EKVX NSCLC
HCC-2998 colon = test system: HCC-2998 colon
HCT-116 colon = test system: HCT-116 colon
HCT-15 colon = test system: HCT-15 colon
HL-60(TB) leukemia = test system: HL-60(TB) leukemia
HOP-62 NSCLC = test system: HOP-62 NSCLC
HOP-92 NSCLC = test system: HOP-92 NSCLC
HS 578T breast = test system: HS 578T breast
HT29 colon = test system: HT29 colon
IGROV1 ovarian = test system: IGROV1 ovarian
K-562 leukemia = test system: K-562 leukemia
KM12 colon = test system: KM12 colon
LOX IMVI melanoma = test system: LOX IMVI melanoma
M14 melanoma = test system: M14 melanoma
MALME-3M melanoma = test system: MALME-3M melanoma
MCF7 breast = test system: MCF7 breast
MDA-MB-231 breast = test system: MDA-MB-231 breast
MDA-MB-435 = test system: MDA-MB-435
MOLT-4 leukemia = test system: MOLT-4 leukemia
NCI-H226 lung = test system: NCI-H226 lung
NCI-H23 lung = test system: NCI-H23 lung
NCI-H460 lung = test system: NCI-H460 lung
NCI-H522 lung = test system: NCI-H522 lung
NCI/ADR-RES ovarian = test system: NCI/ADR-RES ovarian
OVCAR-3 ovarian = test system: OVCAR-3 ovarian
OVCAR-4 ovarian = test system: OVCAR-4 ovarian
OVCAR-5 ovarian = test system: OVCAR-5 ovarian
OVCAR-8 ovarian = test system: OVCAR-8 ovarian
PC-3 prostate = test system: PC-3 prostate
RPMI-8226 leukemia = test system: RPMI-8226 leukemia
RXF 393 renal = test system: RXF 393 renal
SF-268 CNS = test system: SF-268 CNS
SF-295 CNS = test system: SF-295 CNS
SF-539 CNS = test system: SF-539 CNS
SK-MEL-2 melanoma = test system: SK-MEL-2 melanoma
SK-MEL-28 melanoma = test system: SK-MEL-28 melanoma
SK-MEL-5 melanoma = test system: SK-MEL-5 melanoma
SK-OV-3 ovarian = test system: SK-OV-3 ovarian
SN12C renal = test system: SN12C renal
SNB-19 CNS = test system: SNB-19 CNS
SNB-75 CNS = test system: SNB-75 CNS
SR leukemia = test system: SR leukemia
SW-620 colon = test system: SW-620 colon
T-47D breast = test system: T-47D breast
TK-10 renal = test system: TK-10 renal
U251 CNS = test system: U251 CNS
UACC-257 melanoma = test system: UACC-257 melanoma
UACC-62 melanoma = test system: UACC-62 melanoma
UO-31 renal = test system: UO-31 renal

## CCC(=C(c1ccc(OCCN2CCCCCC2)cc1)c1ccc(OCCN2CCCCCC2)cc1)c1ccc(Cl)cc1
786-0 renal
  GI50: 578 nM
  TGI: 1180 nM
A498 renal
  GI50: 4880 nM
  TGI: 9720 nM
A549 NSCLC
  GI50: 1110 nM
  TGI: 4210 nM
ACHN renal
  GI50: 1550 nM
  TGI: 5790 nM
BT-549 breast
  GI50: 3380 nM
  TGI: 7520 nM
CAKI-1 renal
  GI50: 1000 nM
  TGI: 4490 nM
CCRF-CEM leukemia
  GI50: 657 nM
  TGI: 1790 nM
COLO 205 colon
  GI50: 586 nM
  TGI: 1210 nM
DU-145 prostate
  GI50: 1360 nM
  TGI: 5020 nM
EKVX NSCLC
  GI50: 3520 nM
  TGI: 8010 nM
HCC-2998 colon
  GI50: 553 nM
  TGI: 1130 nM
HCT-116 colon
  GI50: 582 nM
  TGI: 1360 nM
HCT-15 colon
  GI50: 631 nM
  TGI: 1450 nM
HL-60(TB) leukemia
  GI50: 683 nM
  TGI: 1600 nM
HOP-62 NSCLC
  GI50: 2640 nM
  TGI: 7580 nM
HOP-92 NSCLC
  GI50: 1340 nM
  TGI: 6070 nM
HS 578T breast
  GI50: 727 nM
  TGI: 1870 nM
HT29 colon
  GI50: 652 nM
  TGI: 1410 nM
IGROV1 ovarian
  GI50: 1350 nM
  TGI: 5210 nM
K-562 leukemia
  GI50: 424 nM
  TGI: 1030 nM
KM12 colon
  GI50: 1060 nM
  TGI: 3600 nM
LOX IMVI melanoma
  GI50: 502 nM
  TGI: 1010 nM
M14 melanoma
  GI50: 639 nM
  TGI: 1300 nM
MALME-3M melanoma
  GI50: 576 nM
  TGI: 1270 nM
MCF7 breast
  GI50: 91.6 nM
  TGI: 785 nM
MDA-MB-231 breast
  GI50: 2060 nM
  TGI: 7760 nM
MDA-MB-435
  GI50: 644 nM
  TGI: 1360 nM
MOLT-4 leukemia
  GI50: 685 nM
  TGI: 1740 nM
NCI-H226 lung
  GI50: 4480 nM
  TGI: 9560 nM
NCI-H23 lung
  GI50: 3670 nM
  TGI: 8190 nM
NCI-H460 lung
  GI50: 645 nM
  TGI: 1250 nM
NCI-H522 lung
  GI50: 3540 nM
  TGI: 8210 nM
NCI/ADR-RES ovarian
  GI50: 1930 nM
  TGI: 6520 nM
OVCAR-3 ovarian
  GI50: 947 nM
  TGI: 3010 nM
OVCAR-4 ovarian
  GI50: 3900 nM
  TGI: 8710 nM
OVCAR-5 ovarian
  GI50: 3730 nM
  TGI: 8250 nM
OVCAR-8 ovarian
  GI50: 4280 nM
  TGI: 9410 nM
PC-3 prostate
  GI50: 1700 nM
  TGI: 6140 nM
RPMI-8226 leukemia
  GI50: 749 nM
  TGI: 1640 nM
RXF 393 renal
  GI50: 754 nM
  TGI: 2250 nM
SF-268 CNS
  GI50: 2330 nM
  TGI: 7470 nM
SF-295 CNS
  GI50: 644 nM
  TGI: 1310 nM
SF-539 CNS
  GI50: 643 nM
  TGI: 1370 nM
SK-MEL-2 melanoma
  GI50: 3960 nM
  TGI: 8630 nM
SK-MEL-28 melanoma
  GI50: 623 nM
  TGI: 1200 nM
SK-MEL-5 melanoma
  GI50: 722 nM
  TGI: 1730 nM
SK-OV-3 ovarian
  GI50: 4230 nM
  TGI: 8590 nM
SN12C renal
  GI50: 3440 nM
  TGI: 8580 nM
SNB-19 CNS
  GI50: 833 nM
  TGI: 2340 nM
SNB-75 CNS
  GI50: 1970 nM
  TGI: 6850 nM
SR leukemia
  GI50: 585 nM
  TGI: 1340 nM
SW-620 colon
  GI50: 555 nM
  TGI: 1210 nM
T-47D breast
  GI50: 649 nM
  TGI: 5310 nM
TK-10 renal
  GI50: 4370 nM
  TGI: 9000 nM
U251 CNS
  GI50: 597 nM
  TGI: 1150 nM
UACC-257 melanoma
  GI50: 651 nM
  TGI: 1400 nM
UACC-62 melanoma
  GI50: 664 nM
  TGI: 1680 nM
UO-31 renal
  GI50: 1720 nM
  TGI: 6670 nM
